{"source": "patent US11932636B2", "about": "“RAD51 inhibitors” (Cyteir Therapeutics, Inc., priority 2019, dated 2024)"}
{"test_system": "Daudi cells (AID positive)", "assay": "Compound primary screening: cell death in AID positive Daudi cells (Cell-Titer Glo, Day 7)", "format": "cell-based", "settings": "Homo sapiens, 168 h; Daudi cells, AID positive; cell death on Day 7, Cell-Titer Glo; read-out: Cellular activity in AID + (Daudi)", "outline": "(§1)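 AID-positive Daudi cells were seeded at 1250 cells per well and treated with serially diluted compound delivered from a DMSO/media master plate. Cultures were incubated at 37 °C, and cell death was measured on Day 7 with Cell-Titer Glo luminescence.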", "units": {"EC50": "µM"}}
{"molecule": "CCNS(=O)(=O)c1cc(Nc2cncn2C(C)C)ccc1-c1cnc([C@H]2CC[C@H](NC(=O)OC(C)C)CC2)s1", "note": "[Compound 138, isopropyl trans-N-[4-[5-[2-(ethylsulfamoyl)-4-[(3-isopropylimidazol-4-yl)amino]phenyl]thiazol-2-yl]cyclohexyl]carbamate]", "EC50": "0.1 to 1"}
{"molecule": "CCNS(=O)(=O)c1cc(Nc2cn(C(C)C)cn2)ccc1-c1cnc([C@H]2CC[C@H](NC(=O)OC(C)C)CC2)s1", "note": "[Compound 139, isopropyl trans-N-[4-[5-[2-(ethylsulfamoyl)-4-[(1-isopropyl-1H-imidazol-4-yl)amino]phenyl]thiazol-2-yl]cyclohexyl]carbamate]", "EC50": "< 0.1"}
{"molecule": "CCNS(=O)(=O)c1cc(Nc2cncc(C(C)C)n2)ccc1-c1cnc([C@H]2CC[C@H](NC(=O)OC(C)C)CC2)s1", "note": "[Compound 140, isopropyl trans-N-[4-[5-[2-(ethylsulfamoyl)-4-[(6-isopropylpyrazin-2-yl)amino]phenyl]thiazol-2-yl]cyclohexyl]carbamate]", "EC50": "0.1 to 1"}
{"molecule": "CCNS(=O)(=O)c1cc(Nc2ncc(C(C)C)[nH]2)ccc1-c1cnc([C@H]2CC[C@H](NC(=O)OC(C)C)CC2)s1", "note": "[Compound 142, isopropyl trans-N-[4-[5-[2-(ethylsulfamoyl)-4-[(5-isopropyl-1H-imidazol-2-yl)amino]phenyl]thiazol-2-yl]cyclohexyl]carbamate]", "EC50": "1 to 10"}
{"molecule": "CCNS(=O)(=O)c1cc(Nc2ccc(C(C)C)nn2)ccc1-c1cnc([C@H]2CC[C@H](NC(=O)OC(C)C)CC2)s1", "note": "[Compound 143, isopropyl trans-N-[4-[5-[2-(ethylsulfamoyl)-4-[(6-isopropylpyridazin-3-yl)amino]phenyl]thiazol-2-yl]cyclohexyl]carbamate]", "EC50": "< 0.1"}
{"molecule": "CCNS(=O)(=O)c1cc(NC2CNC2)ccc1-c1cnc([C@H]2CC[C@H](NC(=O)OC(C)C)CC2)s1", "note": "[Compound 144, isopropyl trans-N-[4-[5-[4-(azetidin-3-ylamino)-2-(ethyl-sulfamoyl)phenyl]thiazol-2-yl]cyclohexyl]carbamate]", "EC50": "0.1 to 1"}
{"molecule": "CCNS(=O)(=O)c1cc(NC2CN(CC(C)C)C2)ccc1-c1cnc([C@H]2CC[C@H](NC(=O)OC(C)C)CC2)s1", "note": "[Compound 145, isopropyl trans-N-[4-[5-[2-(ethylsulfamoyl)-4-[(1-isobutyl-azetidin-3-yl)amino]phenyl]thiazol-2-yl]cyclohexyl]carbamate]", "EC50": "0.1 to 1"}
{"molecule": "CCNS(=O)(=O)c1cc(NC2CN(C(=O)C(C)C)C2)ccc1-c1cnc([C@H]2CC[C@H](NC(=O)OC(C)C)CC2)s1", "note": "[Compound 146, isopropyl trans-N-[4-[5-[2-(ethylsulfamoyl)-4-[[1-(2-methylpropanoyl)azetidin-3-yl]amino]phenyl]thiazol-2-yl]cyclohexyl]carbamate]", "EC50": "< 0.1"}
{"molecule": "CCNS(=O)(=O)c1cc(NC2(C)CNC2)ccc1-c1cnc([C@H]2CC[C@H](NC(=O)OC(C)C)CC2)s1", "note": "[Compound 147, isopropyl trans-N-[4-[5-[2-(ethylsulfamoyl)-4-[(3-methylazetidin-3-yl)amino]phenyl]thiazol-2-yl]cyclohexyl]carbamate]", "EC50": "1 to 10"}
{"molecule": "CC(C)OC(=O)N[C@H]1CC[C@H](c2ncc(-c3ccc(Nc4ncc[nH]4)cc3S(=O)(=O)N3CCC3)s2)CC1", "note": "[Compound 148, isopropyl trans-N-[4-[5-[2-(azetidin-1-ylsulfonyl)-4-(1H-imidazol-2-ylamino)phenyl]thiazol-2-yl]cyclohexyl]carbamate]", "EC50": "< 0.1"}
{"molecule": "CCNS(=O)(=O)c1cc(Nc2cn[nH]n2)ccc1-c1cnc([C@H]2CC[C@H](NC(=O)OC(C)C)CC2)s1", "note": "[Compound 149, isopropyl trans-N-[4-[5-[2-(ethylsulfamoyl)-4-(2H-triazol-4-ylamino)phenyl]thiazol-2-yl]cyclohexyl]carbamate]", "EC50": "< 0.1"}
{"molecule": "CCNS(=O)(=O)c1cc(N(C)c2ncc[nH]2)ccc1-c1cnc([C@H]2CC[C@H](NC(=O)OC(C)C)CC2)s1", "note": "[Compound 150, isopropyl trans-N-[4-[5-[2-(ethylsulfamoyl)-4-[1H-imidazol-2-yl(methyl)amino]phenyl]thiazol-2-yl]cyclohexyl]carbamate]", "EC50": "0.1 to 1"}
{"molecule": "CC(C)OC(=O)N[C@H]1CC[C@H](c2ncc(-c3ccc(Nc4nnc[nH]4)cc3S(=O)(=O)NC(C)(C)C)s2)CC1", "note": "[Compound 151, isopropyl trans-N-[4-[5-[2-(tert-butylsulfamoyl)-4-(4H-1,2,4-triazol-3-ylamino)phenyl]thiazol-2-yl]cyclohexyl]carbamate]", "EC50": "< 0.1"}
{"molecule": "CCNS(=O)(=O)c1cc(Nc2nnc[nH]2)ccc1-c1cnc([C@H]2CC[C@H](NC(=O)OC(C)C)CC2)s1", "note": "[Compound 152, isopropyl trans-N-[4-[5-[2-(ethylsulfamoyl)-4-(4H-1,2,4-triazol-3-ylamino)phenyl]thiazol-2-yl]cyclohexyl]carbamate]", "EC50": "< 0.1"}
{"molecule": "CC(C)OC(=O)N[C@H]1CC[C@H](c2ncc(-c3ccc(Nc4ncco4)cc3S(=O)(=O)N3CCCC3)s2)CC1", "note": "[Compound 153, isopropyl trans-[4-[5-[4-(oxazol-2-ylamino)-2-pyrrolidin-1-ylsulfonyl-phenyl]thiazol-2-yl]cyclohexyl]carbamate]", "EC50": "< 0.1"}
{"molecule": "CCNS(=O)(=O)c1cc(Nc2nccn2C(C)C)ccc1-c1cnc([C@H]2CC[C@H](NC(=O)OC(C)C)CC2)s1", "note": "[Compound 154, isopropyl trans-N-[4-[5-[2-(ethylsulfamoyl)-4-[(1-isopropylimidazol-2-yl)amino]phenyl]thiazol-2-yl]cyclohexyl]carbamate]", "EC50": "< 0.1"}
{"molecule": "CCNS(=O)(=O)c1cc(Nc2ccnc(Cl)n2)ccc1-c1cnc([C@H]2CC[C@H](NC(=O)OC(C)C)CC2)s1", "note": "[Compound 155, isopropyl trans-N-[4-[5-[4-[(2-chloropyrimidin-4-yl)amino]-2-(ethylsulfamoyl)phenyl]thiazol-2-yl]cyclohexyl]carbamate]", "EC50": "0.1 to 1"}
{"molecule": "CCNS(=O)(=O)c1cc(Nc2ccnc(=O)[nH]2)ccc1-c1cnc([C@H]2CC[C@H](NC(=O)OC(C)C)CC2)s1", "note": "[Compound 156, isopropyl trans-N-[4-[5-[2-(ethylsulfamoyl)-4-[(2-hydroxypyrimidin-4-yl)amino]phenyl]thiazol-2-yl]cyclohexyl]carbamate]", "EC50": "0.1 to 1"}
{"molecule": "CCNS(=O)(=O)c1cc(Nc2ccc(CC)nn2)ccc1-c1cnc([C@H]2CC[C@H](NC(=O)OC(C)C)CC2)s1", "note": "[Compound 157, isopropyl trans-N-[4-[5-[4-[(6-ethylpyridazin-3-yl)amino]-2-(ethylsulfamoyl)phenyl]thiazol-2-yl]cyclohexyl]carbamate]", "EC50": "< 0.1"}
{"molecule": "CCNS(=O)(=O)c1cc(Nc2cc(CC)cnn2)ccc1-c1cnc([C@H]2CC[C@H](NC(=O)OC(C)C)CC2)s1", "note": "[Compound 158, isopropyl trans-N-[4-[5-[4-[(5-ethylpyridazin-3-yl)amino]-2-(ethylsulfamoyl)phenyl]thiazol-2-yl]cyclohexyl]carbamate]", "EC50": "0.1 to 1"}
{"test_system": "Daudi cells (AID positive)", "assay": "Compound primary screening: cell death in AID positive Daudi cells (Cell-Titer Glo, Day 7)", "format": "cell-based", "settings": "Homo sapiens, Daudi, 168 h, read-out: Cellular activity in AID + (Daudi)", "outline": "as §1", "units": {"EC50": "µM"}}
{"molecule": "CCNS(=O)(=O)c1cc(Nc2ncc(C)[nH]2)ccc1-c1cnc([C@H]2CC[C@H](NC(=O)OC(C)C)CC2)s1", "note": "[Compound 141, isopropyl trans-N-[4-[5-[2-(ethylsulfamoyl)-4-[(5-methyl-1H-imidazol-2-yl)amino]phenyl]thiazol-2-yl]cyclohexyl]carbamate]", "EC50": "1 to 10"}
